According to PubChem BioAssay AID1963975 (Molecular Pharmacology Branch, DTP, NCI, 2024):
Values belong to the molecule of their own block, whether it stands above or below them.

System: 624824-186-R-J2-PDC multicell spheroids, viability
Experiment: Anticancer human tumor 624824-186-R-J2-PDC patient-derived colon adenocarcinoma cell line growth inhibition [PI3K]
Details: for IC50: curve of first compound; for viability, T/C: stronger effect = lower value
How it was run: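 High-throughput combination screen: PI3K inhibitors crossed with targeted small molecules on complex spheroids of tumor cells, HUVEC and MSCs at 37 degrees C, 5% CO2. Top concentration was at or near clinical Cmax (otherwise 10 microM), with half-log decrements.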

[1] = second compound 0.00316 µM, first compound 0.0316 µM
[2] = second compound 0.00316 µM, first compound 0.1 µM
[3] = second compound 0.00316 µM, first compound 0.316 µM
[4] = second compound 0.00316 µM, first compound 1 µM
[5] = second compound 0.00316 µM, first compound 3.16 µM
[6] = second compound 0.00316 µM, first compound 10 µM
[7] = second compound 0.01 µM, first compound 0.0316 µM
[8] = second compound 0.01 µM, first compound 0.1 µM
[9] = second compound 0.01 µM, first compound 0.316 µM
[10] = second compound 0.01 µM, first compound 1 µM
[11] = second compound 0.01 µM, first compound 3.16 µM
[12] = second compound 0.01 µM, first compound 10 µM
[13] = second compound 0.0316 µM, first compound 0.0316 µM
[14] = second compound 0.0316 µM, first compound 0.1 µM
[15] = second compound 0.0316 µM, first compound 0.316 µM
[16] = second compound 0.0316 µM, first compound 1 µM
[17] = second compound 0.0316 µM, first compound 3.16 µM
[18] = second compound 0.0316 µM, first compound 10 µM
[19] = second compound 0.1 µM, first compound 0.0316 µM
[20] = second compound 0.1 µM, first compound 0.1 µM
[21] = second compound 0.1 µM, first compound 0.316 µM
[22] = second compound 0.1 µM, first compound 1 µM
[23] = second compound 0.1 µM, first compound 3.16 µM
[24] = second compound 0.1 µM, first compound 10 µM
[25] = second compound 0.316 µM, first compound 0.0316 µM
[26] = second compound 0.316 µM, first compound 0.1 µM
[27] = second compound 0.316 µM, first compound 0.316 µM
[28] = second compound 0.316 µM, first compound 1 µM
[29] = second compound 0.316 µM, first compound 3.16 µM
[30] = second compound 0.316 µM, first compound 10 µM
[31] = second compound 1 µM, first compound 0.0316 µM
[32] = second compound 1 µM, first compound 0.1 µM
[33] = second compound 1 µM, first compound 0.316 µM
[34] = second compound 1 µM, first compound 1 µM
[35] = second compound 1 µM, first compound 3.16 µM
[36] = second compound 1 µM, first compound 10 µM
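Also: spheroids exposed to agents for 7 days before viability read.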
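For viability, T/C in this document: 100% = DMSO vehicle treated spheroids.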

- IC50 (second compound 0.00316 µM): 9490 nM
- IC50 (second compound 0.01 µM): 7330 nM
- IC50 (second compound 0.0316 µM): 2200 nM
- IC50 (second compound 0.1 µM): 1760 nM
- IC50 (second compound 0.316 µM): 178 nM
- IC50 (second compound 1 µM): 111 nM
SMILES: CCCS(=O)(=O)Nc1ccc(F)c(C(=O)c2c[nH]c3ncc(-c4ccc(Cl)cc4)cc23)c1F + COc1c(OCCCN2CCOCC2)ccc2c3n(c(=NC(=O)c4cnc(N)nc4)nc12)CCN3
- viability, T/C [1]: 84.7%
- viability, T/C [2]: 95.8%
- viability, T/C [3]: 79.4%
- viability, T/C [4]: 111%
- viability, T/C [5]: 123%
- viability, T/C [6]: 47.7%
- viability, T/C [7]: 81.5%
- viability, T/C [8]: 95.2%
- viability, T/C [9]: 82.3%
- viability, T/C [10]: 87.4%
- viability, T/C [11]: 82.1%
- viability, T/C [12]: 38%
- viability, T/C [13]: 84.2%
- viability, T/C [14]: 64.8%
- viability, T/C [15]: 61.6%
- viability, T/C [16]: 55.6%
- viability, T/C [17]: 60.6%
- viability, T/C [18]: 30.2%
- viability, T/C [19]: 65.3%
- viability, T/C [20]: 54.4%
- viability, T/C [21]: 50%
- viability, T/C [22]: 48.1%
- viability, T/C [23]: 49.8%
- viability, T/C [24]: 21.4%
- viability, T/C [25]: 64.3%
- viability, T/C [26]: 51%
- viability, T/C [27]: 42.8%
- viability, T/C [28]: 37.9%
- viability, T/C [29]: 39.5%
- viability, T/C [30]: 18.6%
- viability, T/C [31]: 56.5%
- viability, T/C [32]: 50.1%
- viability, T/C [33]: 44.2%
- viability, T/C [34]: 35.4%
- viability, T/C [35]: 35.1%
- viability, T/C [36]: 20.6%

- IC50 (second compound 0.00316 µM): > 10000 nM
- IC50 (second compound 0.01 µM): > 10000 nM
- IC50 (second compound 0.0316 µM): > 10000 nM
- IC50 (second compound 0.1 µM): 1020 nM
- IC50 (second compound 0.316 µM): 505 nM
- IC50 (second compound 1 µM): 511 nM
SMILES: C[C@@H](NC(=O)c1ncnc(N)c1Cl)c1ncc(C(=O)Nc2cc(C(F)(F)F)c(Cl)cn2)s1 + COc1c(OCCCN2CCOCC2)ccc2c3n(c(=NC(=O)c4cnc(N)nc4)nc12)CCN3
- viability, T/C [1]: 106%
- viability, T/C [2]: 112%
- viability, T/C [3]: 93.5%
- viability, T/C [4]: 84.4%
- viability, T/C [5]: 62.2%
- viability, T/C [6]: 65.2%
- viability, T/C [7]: 95.5%
- viability, T/C [8]: 119%
- viability, T/C [9]: 106%
- viability, T/C [10]: 70.1%
- viability, T/C [11]: 61.6%
- viability, T/C [12]: 62.6%
- viability, T/C [13]: 91.3%
- viability, T/C [14]: 93%
- viability, T/C [15]: 88.9%
- viability, T/C [16]: 63.9%
- viability, T/C [17]: 63.4%
- viability, T/C [18]: 48%
- viability, T/C [19]: 88.7%
- viability, T/C [20]: 73.9%
- viability, T/C [21]: 64.6%
- viability, T/C [22]: 50.2%
- viability, T/C [23]: 38.7%
- viability, T/C [24]: 33.1%
- viability, T/C [25]: 77.2%
- viability, T/C [26]: 59.9%
- viability, T/C [27]: 55.7%
- viability, T/C [28]: 46.4%
- viability, T/C [29]: 33.8%
- viability, T/C [30]: 28.9%
- viability, T/C [31]: 62.4%
- viability, T/C [32]: 63.4%
- viability, T/C [33]: 52.1%
- viability, T/C [34]: 42.5%
- viability, T/C [35]: 39.2%
- viability, T/C [36]: 26.1%

- IC50 (second compound 0.00316 µM): > 100 nM
- IC50 (second compound 0.01 µM): > 100 nM
- IC50 (second compound 0.0316 µM): > 100 nM
- IC50 (second compound 0.1 µM): > 100 nM
- IC50 (second compound 0.316 µM): > 100 nM
- IC50 (second compound 1 µM): > 100 nM
SMILES: Cn1ncnc1[C@H]1c2n[nH]c(=O)c3cc(F)cc(c23)N[C@@H]1c1ccc(F)cc1 + COc1c(OCCCN2CCOCC2)ccc2c3n(c(=NC(=O)c4cnc(N)nc4)nc12)CCN3
- viability, T/C (second compound 0.00316 µM, first compound 0.000316 µM): 93.9%
- viability, T/C (second compound 0.00316 µM, first compound 0.001 µM): 83.3%
- viability, T/C (second compound 0.00316 µM, first compound 0.00316 µM): 96.7%
- viability, T/C (second compound 0.00316 µM, first compound 0.01 µM): 72%
- viability, T/C [1]: 88.8%
- viability, T/C [2]: 78.4%
- viability, T/C (second compound 0.01 µM, first compound 0.000316 µM): 94.2%
- viability, T/C (second compound 0.01 µM, first compound 0.001 µM): 81.2%
- viability, T/C (second compound 0.01 µM, first compound 0.00316 µM): 79.8%
- viability, T/C (second compound 0.01 µM, first compound 0.01 µM): 84.5%
- viability, T/C [7]: 93.3%
- viability, T/C [8]: 77.7%
- viability, T/C (second compound 0.0316 µM, first compound 0.000316 µM): 90.2%
- viability, T/C (second compound 0.0316 µM, first compound 0.001 µM): 81.9%
- viability, T/C (second compound 0.0316 µM, first compound 0.00316 µM): 84.1%
- viability, T/C (second compound 0.0316 µM, first compound 0.01 µM): 83.1%
- viability, T/C [13]: 88%
- viability, T/C [14]: 95.6%
- viability, T/C (second compound 0.1 µM, first compound 0.000316 µM): 72.2%
- viability, T/C (second compound 0.1 µM, first compound 0.001 µM): 77.4%
- viability, T/C (second compound 0.1 µM, first compound 0.00316 µM): 70.6%
- viability, T/C (second compound 0.1 µM, first compound 0.01 µM): 73.7%
- viability, T/C [19]: 84.9%
- viability, T/C [20]: 76.8%
- viability, T/C (second compound 0.316 µM, first compound 0.000316 µM): 71.1%
- viability, T/C (second compound 0.316 µM, first compound 0.001 µM): 65.2%
- viability, T/C (second compound 0.316 µM, first compound 0.00316 µM): 61.7%
- viability, T/C (second compound 0.316 µM, first compound 0.01 µM): 62.6%
- viability, T/C [25]: 76.3%
- viability, T/C [26]: 60.9%
- viability, T/C (second compound 1 µM, first compound 0.000316 µM): 55.7%
- viability, T/C (second compound 1 µM, first compound 0.001 µM): 50.2%
- viability, T/C (second compound 1 µM, first compound 0.00316 µM): 55.9%
- viability, T/C (second compound 1 µM, first compound 0.01 µM): 56.6%
- viability, T/C [31]: 63.6%
- viability, T/C [32]: 60.8%
